This is an account of results in ChEMBL document CHEMBL5634093, “Elemental exchange: Bioisosteric replacement of phosphorus by boron in drug design” (Eur J Med Chem, 2023).

The test system of one test is Toxoplasma gondii. In words: Antiparasitic activity against Toxoplasma gondii tachyzoites infected in human HeLa cells. Type of test: functional, organism-based.
A further test relates to Trypanosoma cruzi. In words: Antitrypanosomal activity against Trypanosoma cruzi trypomastigotes assessed as parasite growth inhibition. Type of test: functional, organism-based.
Test [1] in a line: Binding affinity to PDE4 (unknown origin) expressed in Escherichia coli using cAMP as substrate assessed as inhibition constant by fluorescence polarization assay. Also noted: species or system Homo sapiens. On the technique in general: In fluorescence polarisation assays a small probe gives low polarisation when free and higher when bound to something large.
A short description of test [2]: Inhibition of human recombinant catalytic domain PDE4 (152 to 484 residues) by fluorescence polarization assay.
The next test addresses Autotaxin (Homo sapiens, UniProt Q13822). In words: Inhibition of ATX (unknown origin).

Each structure is given as a SMILES string. ≈ marks a conversion by molar mass, not a printed value.

For `O=C(O)CCc1cccc2c1B(O)OC2`, the midpoint of inhibition with Toxoplasma gondii, the IC50, lay at 900 nM.
Regarding `COc1cc(C(=O)/C=C/c2ccc3c(c2)B(O)OC3)ccc1N`, the IC50 (usually the point on the concentration scale where inhibition reaches its midpoint) in the test with Trypanosoma cruzi came to 0.01 µg/mL (≈ 0.0323 µM).
For `N#Cc1ccc(Oc2ccc3c(c2)COB3O)cc1C#N`, in test [1], the Ki (usually a measure of affinity in units of concentration, obtained from inhibition or displacement) worked out at 65 nM.
As for `CC(=O)CCCOc1cc(C#N)c(Cl)nc1Oc1ccc2c(c1)COB2O`, the IC50 in test [2] was 0.32 nM.
On the same count and under the same terms, the value for `CC(C)OCCOc1cc(C#N)cnc1Oc1ccc2c(c1)COB2O` was 3 nM.
Regarding `O=C(OCc1cc(Cl)cc(Cl)c1)N1CCN(C2CN(C(=O)c3ccc4c(c3)COB4O)C2)CC1`, 130 nM corresponded to half-maximal inhibition against Autotaxin (IC50).
As for `O=C1N=C(N2CCN(Cc3ccc(B(O)O)cc3)CC2)S/C1=C/c1ccc(Cl)c(Cl)c1`, the IC50 on Autotaxin is 13 nM.
Regarding `N#Cc1ccc(Oc2ccc3c(c2)COB3O)cc1` [CRISABOROLE], the Ki in test [1] was found to be 173 nM.
